This experiment has as its system Acinetobacter baumannii ATCC17978. As to the kind of experiment: Antimicrobial susceptibility testing: 90% growth inhibitory concentration (IC90) determination, Iso-Sensitest broth. The format is cell-based. An outline of the steps: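 A. baumannii ATCC17978 grown in Iso-Sensitest broth across 10 compound concentrations at 35±2 °C.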
Where [1] appears, read: Acinetobacter baumannii, ATCC17978, 16 h, read-out: ATCC17978 IC90, 90% growth inhibitory concentration, Acinetobacter baumannii ATCC17978, Iso-Sensitest broth, OD 600 nm over 16 h.
[2] abbreviates: 90% growth inhibitory concentration, Acinetobacter baumannii ATCC17978, Iso-Sensitest broth, OD 600 nm over 16 h, read-out: ATCC17978 IC90.

The values below come from patent US20230011869A1 (Hoffmann-La Roche Inc., priority 2018, published 2023).

Counter-ions that a name gives are not always drawn. Like-named read-outs stand apart in the source and are kept apart here.

Turning to `CNCCCCNC(=O)C1CCN(C(=O)c2ccc(Nc3nccn4c(-c5ccc(OC)c(F)c5)cnc34)cc2C)CC1` [Example 51, 1-(4-((3-(3-fluoro-4-methoxyphenyl)imidazo[1,2-a]pyrazin-8-yl)amino)-2-methylbenzoyl)-N-(4-(methylamino)butyl)piperidine-4-carboxamide hydrochloride], the IC90 under setting [1] was found to be 290 nM. On the same count and under the same terms, the value for `COc1ccc(-c2cnc3c(Nc4ccc(C(=O)N5CCC(C(=O)NCCCN)CC5)c(C)c4)nccn23)cc1F` [Example 52, N-(3-aminopropyl)-1-(4-((3-(3-fluoro-4-methoxyphenyl)imidazo[1,2-a]pyrazin-8-yl)amino)-2-methylbenzoyl)piperidine-4-carboxamide hydrochloride] was 230 nM; that for `COc1ccc(-c2cnc3c(Nc4ccc(C(=O)N5CCC(C(=O)N6CCNC(CO)C6)CC5)c(C)c4)nccn23)cc1F` (stereo not drawn) [Example 53, (1-(4-((3-(3-fluoro-4-methoxyphenyl)imidazo[1,2-a]pyrazin-8-yl)amino)-2-methylbenzoyl)piperidin-4-yl)(3-(hydroxymethyl)piperazin-1-yl)methanone 2,2,2-trifluoroacetate] was 270 nM.

For the molecule `COc1ccc(-c2cnc3c(Nc4ccc(C(=O)N5CCC(C(=O)NCC6(O)CCNC6)CC5)c(C)c4)nccn23)cc1F` (stereo not drawn) [Example 54, 1-(4-((3-(3-fluoro-4-methoxyphenyl)imidazo[1,2-a]pyrazin-8-yl)amino)-2-methylbenzoyl)-N-((3-hydroxypyrrolidin-3-yl)methyl)piperidine-4-carboxamide 2,2,2-trifluoroacetate], the IC90 under setting [1] was determined as 370 nM. On to `COc1ccc(-c2cnc3c(Nc4ccc(C(=O)N5CCC(C(=O)NCC(O)CN)CC5)c(C)c4)nccn23)cc1F` (stereo not drawn) [Example 55, N-(3-amino-2-hydroxypropyl)-1-(4-((3-(3-fluoro-4-methoxyphenyl)imidazo[1,2-a]pyrazin-8-yl)amino)-2-methylbenzoyl)piperidine-4-carboxamide 2,2,2-trifluoroacetate], for which the IC90 under setting [1] came out at 390 nM. Turning to `COc1ccc(-c2cnc3c(Nc4ccc(C(=O)N5CCC(C(=O)N[C@@H]6CNC[C@H]6O)CC5)c(C)c4)nccn23)cc1F` [Example 56, 1-(4-((3-(3-fluoro-4-methoxyphenyl)imidazo[1,2-a]pyrazin-8-yl)amino)-2-methylbenzoyl)-N-((3R,4R)-4-hydroxypyrrolidin-3-yl)piperidine-4-carboxamide 2,2,2-trifluoroacetate], under setting [1], the IC90 amounted to 220 nM. For the molecule `COc1ccc(-c2cnc3c(Nc4ccc(C(=O)N5CCC(C(=O)NC6CNC6)CC5)c(C)c4)nccn23)cc1F` [Example 57, N-(azetidin-3-yl)-1-(4-((3-(3-fluoro-4-methoxyphenyl)imidazo[1,2-a]pyrazin-8-yl)amino)-2-methylbenzoyl)piperidine-4-carboxamide 2,2,2-trifluoroacetate], under setting [1], the IC90 was 250 nM. On the same count and under the same terms, the value for `COc1ccc(-c2cnc3c(Nc4ccc(C(=O)N5CCC(C(=O)NCC6(O)CNC6)CC5)c(C)c4)nccn23)cc1F` [Example 58, 1-(4-((3-(3-fluoro-4-methoxyphenyl)imidazo[1,2-a]pyrazin-8-yl)amino)-2-methylbenzoyl)-N-((3-hydroxyazetidin-3-yl)methyl)piperidine-4-carboxamide 2,2,2-trifluoroacetate] was 250 nM; that for `COc1ccc(-c2cnc3c(Nc4ccc(C(=O)N5CCC(C(=O)N[C@@H]6CCNC6)CC5)c(C)c4)nccn23)cc1F` [Example 59, (R)-1-(4-((3-(3-fluoro-4-methoxyphenyl)imidazo[1,2-a]pyrazin-8-yl)amino)-2-methylbenzoyl)-N-(pyrrolidin-3-yl)piperidine-4-carboxamide 2,2,2-trifluoroacetate] was 230 nM. For the molecule `COc1ccc(-c2cnc3c(Nc4ccc(C(=O)N5CCC(C(=O)NCC6CNC6)CC5)c(C)c4)nccn23)cc1F` [Example 60, N-(azetidin-3-ylmethyl)-1-(4-((3-(3-fluoro-4-methoxyphenyl)imidazo[1,2-a]pyrazin-8-yl)amino)-2-methylbenzoyl)piperidine-4-carboxamide 2,2,2-trifluoroacetate], the IC90 (read-out: ATCC17978 IC90, 90% growth inhibitory concentration, Acinetobacter baumannii ATCC17978, Iso-Sensitest broth, OD 600 nm over 16 h, 2,2,2-trifluoroacetate) was 210 nM. Regarding `COc1ccc(-c2cnc3c(Nc4ccc(C(=O)N5CCC(C(=O)NCCN6CCC6)CC5)c(C)c4)nccn23)cc1F` [Example 61, N-(2-(azetidin-1-yl)ethyl)-1-(4-((3-(3-fluoro-4-methoxyphenyl)imidazo[1,2-a]pyrazin-8-yl)amino)-2-methylbenzoyl)piperidine-4-carboxamide], the IC90 under setting [2] stood at 180 nM. Same read-out and setting: the value for `COc1ccc(-c2cnc3c(Nc4ccc(C(=O)N5CCC(C(=O)NCCCN6CCC6)CC5)c(C)c4)nccn23)cc1F` [Example 62, N-(3-(azetidin-1-yl)propyl)-1-(4-((3-(3-fluoro-4-methoxyphenyl)imidazo[1,2-a]pyrazin-8-yl)amino)-2-methylbenzoyl)piperidine-4-carboxamide] was 160 nM. With `COc1ccc(-c2cnc3c(Nc4ccc(C(=O)N5CCC(C(=O)N[C@@H]6CCNC6)CC5)c(C)c4)nccn23)c(F)c1F` [Example 63, (R)-1-(4-((3-(2,3-difluoro-4-methoxyphenyl)imidazo[1,2-a]pyrazin-8-yl)amino)-2-methylbenzoyl)-N-(pyrrolidin-3-yl)piperidine-4-carboxamide hydrochloride], the IC90 under setting [2] was found to be 170 nM. For `COc1ccc(-c2cnc3c(Nc4ccc(C(=O)N5CCN(C(=O)CN(C)C)CC5)c(C)c4)nccn23)cc1F` [Example 64, 2-(dimethylamino)-1-(4-(4-((3-(3-fluoro-4-methoxyphenyl)imidazo[1,2-a]pyrazin-8-yl)amino)-2-methylbenzoyl)piperazin-1-yl)ethanone], the IC90 under setting [2] was 270 nM. Regarding `COc1ccc(-c2cnc3c(Nc4ccc(C(=O)N5CCC(C(=O)NCC6CNC6)CC5)c(C)c4)nccn23)cc1F` [Example 65, N-(azetidin-3-ylmethyl)-1-(4-((3-(3-fluoro-4-methoxyphenyl)imidazo[1,2-a]pyrazin-8-yl)amino)-2-methylbenzoyl)piperidine-4-carboxamide], the IC90 under setting [2] was 250 nM.

As for `Cc1cc(Nc2nccn3c(-c4ccc(OC(F)F)cc4)cnc23)ccc1C(=O)N1CCN(C2=NCCN2)CC1` [Example 67], the IC90 under setting [2] is 120 nM. Same read-out and setting: the value for `Cc1cc(Nc2nccn3c(-c4ccc(OC(F)F)cc4)cnc23)ccc1C(=O)N1CCC(C(=O)NCC2CNC2)CC1` [Example 68] was 190 nM; that for `Cc1cc(Nc2nccn3c(-c4ccc(OC(F)F)cc4)cnc23)ccc1C(=O)N1CCN(C(=N)N)CC1` [Example 69] was 110 nM. Turning to `COc1ccc(-c2cnc3c(Nc4ccc(C(=O)N5CCC(O)(CN)CC5)c(C)c4)nccn23)cc1F` [Example 71, [4-(aminomethyl)-4-hydroxypiperidin-1-yl]-[4-[[3-(3-fluoro-4-methoxyphenyl)imidazo[1,2-a]pyrazin-8-yl]amino]-2-methylphenyl]methanone;2,2,2-trifluoroacetic acid], the IC90 under setting [2] is 350 nM. Same read-out and setting: with `Cc1cc(Nc2nccn3c(-c4ccc(OC(F)F)cc4)cnc23)ccc1C(=O)N1CCC(Cc2cnc[nH]2)CC1` [Example 72, (4-((1H-imidazol-4-yl)methyl)piperidin-1-yl)(4-((3-(4-(difluoromethoxy)phenyl)imidazo[1,2-a]pyrazin-8-yl)amino)-2-methylphenyl)methanone] the figure was 260 nM. For the molecule `COc1ccc(-c2cnc3c(Nc4ccc(C(=O)N5CCN(C6CNC6)CC5)c(C)c4)nccn23)cc1F` [Example 73, (4-(azetidin-3-yl)piperazin-1-yl)(4-((3-(3-fluoro-4-methoxyphenyl)imidazo[1,2-a]pyrazin-8-yl)amino)-2-methylphenyl)methanone hydrochloride], the IC90 under setting [2] worked out at 330 nM.

Take `Cc1cc(Nc2nccn3c(-c4ccc(OC(F)F)cc4)cnc23)ccc1C(=O)N1CCN(C(N)=O)CC1` [Example 74, 4-(4-((3-(4-(difluoromethoxy)phenyl)imidazo[1,2-a]pyrazin-8-yl)amino)-2-methylbenzoyl)piperazine-1-carboxamide]: under setting [2], the IC90 came out at 71 nM. On to `COc1ccc(-c2cnc3c(Nc4ccc(C(=O)N5CCC(C(=O)NCC6CNC6)CC5)c(C)c4)nccn23)c(F)c1F` [Example 75, hydrochloride], for which, under setting [1], the IC90 came to 160 nM. `Cc1cc(Nc2nccn3c(-c4ccc(OCC#N)c(F)c4F)cnc23)ccc1C(=O)N1CCC(CNC(=O)CO)CC1` [Example 91, N-[[1-[4-[[3-[4-(cyanomethoxy)-2,3-difluoro-phenyl]imidazo[1,2-a]pyrazin-8-yl]amino]-2-methyl-benzoyl]-4-piperidyl]methyl]-2-hydroxy-acetamide]: under setting [2], the IC90 amounted to 500 nM. On the same count and under the same terms, the value for `Cc1cc(Nc2nccn3c(-c4ccc(OCC#N)c(F)c4F)cnc23)ccc1C(=O)N1CCC(C(=O)N2CCNC(CO)C2)CC1` (stereo not drawn) [Example 95, 2-[2,3-difluoro-4-[8-[4-[4-[3-(hydroxymethyl)piperazine-1-carbonyl]piperidine-1-carbonyl]-3-methyl-anilino]imidazo[1,2-a]pyrazin-3-yl]phenoxy]acetonitrile;2,2,2-trifluoroacetic acid] was 89 nM.

On to `N#CCOc1ccc(-c2cnc3c(Nc4ccc(C(=O)N5CCC(C(=O)OCC6CNCCN6)CC5)c(Cl)c4)nccn23)c(Cl)c1F` (stereo not drawn) [Example 96, piperazin-2-ylmethyl 1-[2-chloro-4-[[3-[2-chloro-4-(cyanomethoxy)-3-fluoro-phenyl]imidazo[1,2-a]pyrazin-8-yl]amino]benzoyl]piperidine-4-carboxylate trifluoroacetate], for which the IC90 under setting [2] was found to be 290 nM.

On to `Cc1cc(Nc2nccn3c(-c4ccc(OCC#N)c(F)c4Cl)cnc23)ccc1C(=O)N1CCC(C(=O)N2CCNC(CO)C2)CC1` (stereo not drawn) [Example 97, 2-[3-chloro-2-fluoro-4-[8-[4-[4-[3-(hydroxymethyl)piperazine-1-carbonyl]piperidine-1-carbonyl]-3-methyl-anilino]imidazo[1,2-a]pyrazin-3-yl]phenoxy]acetonitrile trifluoroacetate], for which the IC90 under setting [2] worked out at 96 nM.
